{"source": "patent US7989466B2", "about": "“Methods to inhibit or augment an inflammatory response” (Cambridge Enterprise Limited, priority 1999, dated 2011)", "key": {"CCR-2": {"target": "CCR-2 (Homo sapiens, UniProt P41597)", "sequence (P41597 1-313 limits assumed)": "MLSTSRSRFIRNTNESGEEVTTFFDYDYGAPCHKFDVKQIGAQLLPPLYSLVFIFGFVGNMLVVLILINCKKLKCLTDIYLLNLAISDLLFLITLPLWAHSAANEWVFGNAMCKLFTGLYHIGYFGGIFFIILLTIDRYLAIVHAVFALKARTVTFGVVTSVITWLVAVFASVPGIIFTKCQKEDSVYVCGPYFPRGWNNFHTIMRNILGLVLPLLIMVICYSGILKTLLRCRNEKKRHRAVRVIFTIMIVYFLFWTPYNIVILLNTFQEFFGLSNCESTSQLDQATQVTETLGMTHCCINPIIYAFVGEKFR", "assay": "Competitive binding to CCR-2 on CHO cells", "conditions": "read-out: ED50, Binding to CCR-2", "protocol": "A competitive binding assay was used to determine the binding of A-I to chemokine receptors. These experiments were performed under ‘Horuk’ conditions (Hesselgesser et al., J. Biol. Chem., 273, 15687 (1998)), except that CHO cells expressing CCR-2 or CXCR-2 (AIDS Reagent Program, MRC London) were used. In each case, the specific binding of 0.25 nM labeled ligand to the cells was determined as the counts bound which were competable by 100 nM cold ligand. In each experiment, A-I was added from a stock solution in DMSO (with <0.1% DMSO final concentration in the assay)."}, "[1]": {"target": "T1, Recombinant human latent TGF-β1 (Homo sapiens, UniProt P01137)", "T1 construct": "purchased R&D Systems; host or cells: CHO cells", "T1 sequence (P01137 30-278 limits assumed)": "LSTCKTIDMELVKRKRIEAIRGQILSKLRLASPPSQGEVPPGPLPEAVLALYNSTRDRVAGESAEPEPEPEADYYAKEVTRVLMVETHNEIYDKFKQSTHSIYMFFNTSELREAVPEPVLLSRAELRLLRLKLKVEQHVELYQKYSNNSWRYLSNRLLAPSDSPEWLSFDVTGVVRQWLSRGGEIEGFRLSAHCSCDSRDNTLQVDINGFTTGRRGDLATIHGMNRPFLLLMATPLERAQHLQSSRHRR", "assay": "Latent TGF-β1 activation ELISA (R2X capture)", "assay_type": "biochemical", "parameters": "key: −: A minus indicates no detectable activity in the assay; +: The number of pluses is a qualitative indicating of the activity of each peptide in each assay; ++: The number of pluses is a qualitative indicating of the activity of each peptide in each assay; +++: The number of pluses is a qualitative indicating of the activity of each peptide in each assay; ++++: The number of pluses is a qualitative indicating of the activity of each peptide in each assay; +++++: The number of pluses is a qualitative indicating of the activity of each peptide in each assay", "conditions": "test peptide at 100 nM, 37° C., 90 minutes", "protocol": "To test whether a KXK tripeptide activates TGF-beta, a direct ELISA-type assay can be used. Recombinant human latent TGF-β1 produced in CHO cells (R&D Systems) was incubated with the test activator. For example, 200 ng of latent TGF-β1 (at 20 μg/ml) was incubated with test peptide at 100 nM final concentration at 37° C. for 90 minutes. Following incubation, the TGF-β is incubated with the recombinant extracellular domain of the Type II TGF-β receptor (R2X) which binds only the active and not the latent forms of TGF-β1 (Clin. Chim. Acta, 235, 11 (1995)). For example, 1 μg of purified R2X is coated onto a Maxisorp ELISA plate well in 50 μl of 100 mM sodium carbonate for 2 hours at 4° C., and non-specific protein binding then blocked incubation with 5% sucrose 5% Tween-20 in Tris-buffered saline for 1 hour at room temperature.\nThe TGF-β sample is then incubated with the coated and blocked wells for 2 hours at room temperature with shaking. Wells are washed 3 times quickly with Tris-buffered saline containing 0.05% Tween-20 between each incubation. If any of the latent TGF-β1 has been activated by the incubation with test peptide, it is captured by the R2X, while remaining latent TGF-β1 is washed away. Captured active TGF-β1 is then detected by incubation with a suitable detection agent, such as a peroxidase conjugated polyclonal anti-TGF-beta antibody. For example, the wells are incubated with 200 μl of BDA19 chicken anti-TGF-β1 antibody coupled to horseradish peroxidase for 90 minutes at room temperature with shaking. Any bound peroxidase is then detected using a suitable chromogenic substrate (e.g., K-BLUE TMB substrate solution). The amount of active TGF-β generated is estimated by interpolation of a standard curve constructed using known amounts of active TGF-β1 (R&D Systems)."}, "HIV (IIIb)": {"tested_on": "HIV (IIIb)", "assay": "HIV infectivity of Jurkat T-cells, p24gag immunofluorescence", "assay_type": "cell-based", "conditions": "100 μM peptide (SDF1α 100 ng/ml), about 48 hours after infection", "protocol": "(a) HIV (IIIb) replication in cultures of Jurkat T-cells was estimated by measuring the supernatant reverse transcriptase activity two weeks after infection. Peptide 2 and peptide 3 were at 100 μM final concentration and SDF-1α was added at 100 ng/ml final concentration 1 hour prior to exposure to virus. Values are mean±SEM from 12 wells, expressed as the percentage of the reverse transcriptase activity in the supernatant from the control wells. The experiment shown is typical of six separate experiments. (b) HIV (IIIb) infectivity of Jurkat T-cells was estimated by staining cells treated identically to those in (a) for p24^gag expression. Values are mean±S.D. percentage of cells stained for p24gag averaged from 12 fields of view from each of two separate wells. (c) HIV (MN) infectivity of THP-1 cells measured as in (b). […] Both fields of view contain 40-50 cells (assessed by Hoeschst 33345 staining viewed under UV illumination conditions).\nJurkat cells following HIV infection were attached to 8-well chamber slides (Becton-Dickinson) by spinning the slides using a plate rotor in a Labofuge centrifuge (Haeraeus) at 3,000×g for 5 minutes. […] A threshold was then applied to each image which was the lowest threshold that detected <1% of the pixels of an image of uninfected cells stained under identical conditions. The number of objects exceeding this threshold in each field of view were counted. […]"}}, "data": [{"compound": "C=CCCCCCCCCC(=O)N[C@H]1CCC(=O)NC1=O", "note": "[A-I (NR58.4), [3S]-3-(undec-10-enoylamino)piperidine-2,6-dione]", "values": [{"measurement": "EC50", "setting": "CCR-2", "value": 5, "unit": "nM"}]}, {"compound": "NCCCC[C@H](NC(=O)[C@H](CCC(N)=O)NC(=O)[C@@H](N)CCCCN)C(=O)O", "note": "[KQK]", "values": [{"measurement": "TGF-beta Activator", "setting": "[1]", "value": "−"}]}, {"compound": "EICADPKQKWVQ [peptide 3(1-12)[MCP-1]]", "values": [{"measurement": "inhibition of viral infectivity, p24gag staining, Jurkat T-cells", "setting": "HIV (IIIb)", "value": "ineffective"}]}]}
